Where a SMILES comes first, the peptide text is derived from it. Bridges are numbered along the chain shown (N, C = ends). [ ]: non-standard residue; d: D form. The star is where a group is joined. DOTA = O=C(O)CN1CCN(CC(=O)O)CCN(CC(=O)*)CCN(CC(=O)O)CC1; dPhe(4-NHCONH2) = NC(=O)Nc1ccc(C[C@@H](N)C(=O)O)cc1; Dihydroorotyl(S) = O=C1C[C@@H](C(=O)*)NC(=O)N1; Phe(4-Cl) = N[C@@H](Cc1ccc(Cl)cc1)C(=O)O; Phe(4-NH2) = Nc1ccc(C[C@H](N)C(=O)O)cc1
Experiments:
SSTR2 + AR42J cells = test: Cell uptake in AR42J cells; assay type: cell-based, rat
Experimental: (§1) 1×10^5 AR42J, A549, and MCF-7 cells were seeded onto 24-well plates (n = 6) and incubated at 37°C 48 h before study. […] The cells were incubated at 37°C under 5% CO2 for 2 h. Following incubation, the media was removed, and the cells were washed 3 times with ice-cold PBS. 500 μL of 0.2 M NaOH was added to detach the cells before collection into microcentrifugetubes followed by a 500 μL wash of PBS. Associated radioactivity was counted on a HIDEX (Turku, Finland) AGM gamma counter.
(§2) To normalize the counts to the total protein amount, a BCA protein assay (ThermoFisher Scientific) was performed, and the final data reported in % cell uptake/mg of protein.

AR42J cells = test: Cell internalization assay in AR42J cells; assay type: cell-based, rat; conditions: for internalization fraction (of total activity): 2 h incubation
Experimental: At each time point, the media was removed, and cells were washed 3 times with ice-cold PBS. To determine the surface bound fraction, 0.5 mL of 0.1 M citric acid (pH 5) was added to each well and incubated for 5 min. The fraction was collected into a microcentrifuge tube followed by addition of 0.5 mL gentle wash of PBS. To determine the internalized activity, 0.5 mL of 0.2 M NaOH was added to each well and incubated at 37°C for 5 min. This fraction was collected in a separate tube followed by addition of 0.5 mL of PBS wash. The final results were expressed as a percentage of the total activity that was present in each of the two fractions.

A549 cells = test: Cell uptake in A549 cells; assay type: cell-based, human; conditions: A549, 0.5 nM, 2 h, 37°C, per mg protein; Fig. 3A study
Experimental: as §1, §2

MCF-7 cells = test: Cell uptake in MCF-7 cells; assay type: cell-based, human; conditions: MCF-7, 0.5 nM, 2 h, 37°C, per mg protein; Fig. 3A study
Experimental: as §1, §2

in vivo = conditions: mouse, total radioactivity, Biodistribution
Experimental: Subcutaneous tumor xenograft models for AR42J were established by implanting 1×10^6 cells in complete cell media subcutaneously into the right shoulder 3–4 weeks (tumor average diameter of between 5–7 mm) before study.
Mice (n = 4 per group) were anesthetized with 2.5% isoflurane in oxygen and were injected via the retroorbital sinus. After injection, at 4, 24, and 48 h, mice were imaged on a Sofie GNEXT PET/CT small animal scanner (Sofie Biosciences, Dulles, VA, USA). At each time point, 30 min of PET data were acquired followed by a 3-min CT at 80 kVp for anatomical reference. At each time point post imaging, mice were euthanized, and organs were collected, weighed, and counted for associated radioactivity on gamma counter. Radioactivity uptake was calculated as the percent injected dose per gram of tissue (% ID/g).

[1] = Stability of the radioligands in mouse serum; conditions: 37°C, 5 days post incubation, radio-TLC
Experimental: At the specified time points, 40 μL of serum/radioligand mixture was collected and combined with an equal amount of methanol to separate serum proteins, as described in a previously published protocol on metabolite extraction and protein removal [19]. The supernatant was analyzed using both radio TLC and radio HPLC, as described above to determine the percentage intact complex.

[2] = 2 h incubation at 37°C, comparative study Fig. 4A

With C[C@@H](O)[C@@H]1NC(=O)[C@H](CCCCN)NC(=O)[C@@H](Cc2ccc(NC(N)=O)cc2)NC(=O)[C@H](Cc2ccc(NC(=O)[C@@H]3CC(=O)NC(=O)N3)cc2)NC(=O)[C@H](NC(=O)[C@H](Cc2ccc(Cl)cc2)NC(=O)CN2CCN(CC(=O)O)CCN(CC(=O)O)CCN(CC(=O)O)CC2)CSSC[C@@H](C(=O)N[C@H](Cc2ccc(O)cc2)C(N)=O)NC1=O [[^52Mn]Mn-DOTA-JR11] ({DOTA}-[Phe(4-Cl)][dC][Phe(4-NH2)](Dihydroorotyl(S))[dPhe(4-NHCONH2)]KTC[dY]-NH2; disulfide 2-7 (inferred); C-terminus assumed) the cell uptake (SSTR2 + AR42J cells; [2]) was 7.13 ± 0.38 %/ mg, the total activity internalized (AR42J cells) was 20.85 ± 0.59% and the “internalization fraction (of total activity)” value (AR42J cells) was 20.85 ± 0.59%.

For C[C@@H](O)[C@H](NC(=O)[C@@H]1CSSC[C@H](NC(=O)[C@@H](Cc2ccccc2)NC(=O)CN2CCN(CC(=O)O)CCN(CC(=O)O)CCN(CC(=O)O)CC2)C(=O)N[C@@H](Cc2ccc(O)cc2)C(=O)N[C@H](Cc2c[nH]c3ccccc23)C(=O)N[C@@H](CCCCN)C(=O)N[C@@H]([C@@H](C)O)C(=O)N1)C(=O)O [[^52Mn]Mn-DOTATATE], the cell uptake (SSTR2 + AR42J cells; 0.5 nM, 2 h, 37°C, per mg protein, Fig. 3A study) was 18.25 ± 1.31 % /mg, the cell uptake (SSTR2 + AR42J cells; [2]) was 11.95 ± 0.71 %/ mg and the cell uptake (A549 cells) was 4.07 ± 0.88 % /mg. For the same molecule, the cell uptake (MCF-7 cells) was 2.30 ± 0.20 % /mg, the total activity internalized (AR42J cells) was 53.13 ± 1.83% and the “internalization fraction (of total activity)” value (AR42J cells) was 53.13 ± 1.83%. It also gave a tissue uptake at 4 h (in vivo; Blood (μL)) of 0.91 ± 0.05 %ID/g, a tissue uptake at 4 h (in vivo; Fat) of 0.52 ± 0.19 %ID/g and a tissue uptake at 4 h (in vivo; Small Intestines) of 1.32 ± 0.46 %ID/g. The intact complex [1] was > 95%.
